Test results as given in US20250009747A1, “ENDOTHELIN RECEPTOR ANTAGONISTS FOR USE IN TREATING OR PREVENTING MUSCLE FIBROSIS” (ASSOCIATION INSTITUT DE MYOLOGIE, priority 2021, published 2025).
Entries after “also recorded” stand apart in the source; their conditions may differ. Square brackets hold non-standard residues; d marks the D form. Peptide text beside a SMILES is read from it.

How the values were obtained:
Type in all cases: cell-based, human
[1] = tested on: FAPs from M^CT, FibM^CT and FibM^OP; assay: COL7A1 immunostaining as a readout of ECM production in FAPs treated with ET-1 +/- antagonist; details: 3 days
Excerpt: (§1) Human FAPs cells were isolated from muscle biopsies obtained during surgical procedures via Myobank, affiliated to EuroBioBank, after informed consent in accordance with European recommendations and French legislation (authorization AC-2019-3502). Human FAPs isolated here as the CD56 negative cell fraction (Périé, S. et al. 2006), are obtained from control skeletal muscle: M^CT, control fibrotic cricopharyngeal muscle (CPM): FibM^CT, OPMD fibrotic CPM with exacerbated levels of fibrosis: FibM^OP, and fibrotic muscle from inclusion body myositis patients: FibM^IBM. All tested fibrotic muscle are skeletal fibrotic muscle. These cells expressed predominantly PDGFRa, CD90 and CD105 known markers of Fibro/Adipogenic Progenitors (FAPs) in human skeletal muscle. The tissue type, cell type, age, pathological condition and muscle fibrotic state of each biopsy sample are specified in table below.
(§2) The muscle biopsies were finely minced and explants were plated onto non-coated Petri dishes in drops of fetal bovine serum (FBS) (Invitrogen, Carlsbad, CA) as previously described (Bigot et al., 2009). Cells were cultivated at 37° C. in a humid atmosphere containing 5% CO2 and in growth medium consisting of 199 medium (Life technologies, Paisley, UK) and Dulbecco's Modified Eagle Medium (DMEM, Life technologies) in a 1:4 ratio supplemented with 20% Fetal Bovine Serum (FBS, Invitrogen), 25 μg/ml fetuin (Life technologies), 0.5 ng/mL bFGF (Life technologies), 5 ng/ml EGF (Life technologies), 5 μg/mL insulin (Sigma-Aldrich) and 50 μg/mL gentamycin (Life Technologies). Cells were labelled with CD56 antibody coupled to microbeads (130-050-401, MACS; Miltenyi Biotec, Paris, France) and then separated using a immunomagnetic cell sorting system (MACS) according to the manufacturer's instructions. The myogenic purity of both cell fractions (CD56+, myogenic and CD56−, non-myogenic) was monitored by immunocytochemistry using an antibody against desmin (clone D33, Dako, Trappes, France), exclusively expressed in myogenic cells.
The method for quantification of ET-1 protein is described in Le Bihan et al. 2012. Treatment of FAPs to evaluate the effect of ET-1 was performed on 70-80% confluence cells that were rinsed twice with DMEM and treated 3 days with proliferation medium at 1% FBS (instead of 20%) containing either DMSO or 40 nM ET-1 (E7764, Sigma-Aldrich)+/−10 μM Bosentan (SML1265, Sigma Aldrich), 10 nM BQ788 (SML192621, Sigma Aldrich), or 10 nM BQ123 (B150, Sigma-Aldrich). For proliferation experiment, Edu (10 μM) was added at day 2 and cells were fixed 24 h later. EdU labeling was carried out using the Click-iT™ EdU Cell Proliferation Kit (C10338, Life Technologies) according to the manufacturer's instructions. […]

[2] = tested on: FAPs from M^CT, FibM^CT and FibM^OP; assay: Edu proliferation of FAPs treated with ET-1 +/- antagonist; details: 3 days
Excerpt: as §1
as §2, with “Cells were labelled with CD56 antibody coupled to microbeads (130-050-401, MACS; Miltenyi Biotec, Paris, France) and then separated using a immunomagnetic cell sorting system (MACS) according to the manufacturer's instructions.” left out
The method for quantification of ET-1 protein is described in Le Bihan et al. 2012. […]

[3] = tested on: myoblast cocultured with FAPs from FibM^OP; assay: Coculture of myoblasts with FAPs from fibrotic muscle, fusion index; details: Bosentan 10 μM added at day 0 and day 3, fixed at day 5, myoblasts/FAPs 70%/30%
Protocol: Non-myogenic (CD56-) and myogenic (CD56+) cells were seeded together at a 30%/70% ratio and at a final confluence of 21000 cells/cm2. Once the cells have adhered, the medium was replaced by a differentiation medium composed by DMEM with 50 μg/mL gentamycin. To study the effect of Bosentan on the fusion index in coculture 10 μM of Bosentan (SML1265, Sigma Aldrich) was added to the wells at day 0 and day 3. Cells were fixed at day 5 in 4% paraformaldehyde (PFA). The fusion index was calculated as the ratio between the number of nuclei per myotube (>2 nuclei) identified by a desmin staining and the total number of desmin+nuclei. Immunostaining were performed on cells fixed in 4% PFA for 10 minutes (min) and incubated with blocking solution (PBS 2% FBS 0.2% Triton) for 30 minutes (min). Fixed cells were then incubated 1 h with primary antibodies (COL7A1 […] Sigma Aldrich 1/800; Desmin […] Dako 1/50). Detection of immune complexes was performed using the appropriate Alexa-Fluor-secondary antibodies purchased from Life Technologies (Grand Island, NY) for 45 min. Nuclei and actin filament were counterstained with Hoechst and Phalloidin-Alexa 568 (Interchim 1/400) respectively.

CC(C)C[C@@H]1NC(=O)[C@@H](C(C)C)NC(=O)[C@@H]2CCCN2C(=O)[C@@H](CC(=O)O)NC(=O)[C@@H](Cc2c[nH]c3ccccc23)NC1=O [BQ123] (cyclo(L[dW][dD]P[dV]))
ECM production (percentage of COL7A1 positive cells) ([1]; ET-1 40 nM + antagonist 10 nM): decrease of ECM production

CCCC[C@@H](NC(=O)[C@@H](Cc1cn(C(=O)OC)c2ccccc12)NC(=O)[C@H](CC(C)(C)C)NC(=O)N1[C@H](C)CCC[C@@H]1C)C(=O)O [BQ788]
ECM production (percentage of COL7A1 positive cells) ([1]; ET-1 40 nM + antagonist 10 nM): decrease of ECM production
proliferation (percentage of Edu positive cells) ([2]; ET-1 40 nM + BQ788 10 nM): decrease of proliferation

COc1ccccc1Oc1c(NS(=O)(=O)c2ccc(C(C)(C)C)cc2)nc(-c2ncccn2)nc1OCCO [Bosentan]
ECM production (percentage of COL7A1 positive cells) ([1]; ET-1 40 nM + Bosentan 10 μM): partially abolished the effect of ET1
proliferation (percentage of Edu positive cells) ([2]; ET-1 40 nM + Bosentan 10 μM): partially abolished the effect of ET1; also recorded: decrease of proliferation
fusion index [3]: partially restored to control levels

CC[C@H](C)[C@H](NC(=O)[C@H](CC(=O)O)NC(=O)[C@H](CC(C)C)NC(=O)[C@H](Cc1c[nH]cn1)NC(=O)[C@@H]1CSSC[C@H](N)C(=O)N[C@@H](CO)C(=O)N[C@H]2CSSC[C@H](NC(=O)[C@H](CCC(=O)O)NC(=O)[C@H](CCCCN)NC(=O)[C@H](CC(=O)O)NC(=O)[C@H](CCSC)NC(=O)[C@H](CC(C)C)NC(=O)[C@H](CO)NC(=O)[C@H](CO)NC2=O)C(=O)N[C@@H](C(C)C)C(=O)N[C@@H](Cc2ccc(O)cc2)C(=O)N[C@@H](Cc2ccccc2)C(=O)N1)C(=O)N[C@H](C(=O)N[C@@H](Cc1c[nH]c2ccccc12)C(=O)O)[C@@H](C)CC [ET1]
ECM production (percentage of COL7A1 positive cells) ([1]; ET-1 40 nM, vs DMSO): increased
proliferation (percentage of Edu positive cells) ([2]; ET-1 40 nM, vs DMSO): increased
